# Laboratory results from US10294202B2, “Pyrrolidinones as herbicides” (FMC Corporation, priority 2013, dated 2019).
# What was measured:
# wheat = assay: Test A pre-/postemergence herbicide test; format: in vivo, Triticum aestivum; conditions: for Wheat plant response rating: Preemergence, visual rating on 0 to 100 scale (0 no effect, 100 complete control)
# Method in brief: (§1)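 Directed soil spray to seeded pots (preemergence) or spray onto one- to two-leaf seedlings 2–10 cm tall (postemergence); loam/sand substrate throughout. Evaluated visually after about 10 days against untreated plants, 0 = no effect, 100 = complete control.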
# rice = assay: Test C flooded paddy test; format: in vivo, Oryza sativa; conditions: Flood
# From the text: (§2) Plant species in the flooded paddy test consisted of rice (Oryza sativa), sedge, umbrella (small-flower umbrella sedge, Cyperus difformis), ducksalad (Heteranthera limosa), and barnyardgrass (Echinochloa crus-galli) grown to the 2-leaf stage for testing. At time of treatment, test pots were flooded to 3 cm above the soil surface, treated by application of test compounds directly to the paddy water, and then maintained at that water depth for the duration of the test. Treated plants and controls were maintained in a greenhouse for 13 to 15 days, after which time all species were compared to controls and visually evaluated. Plant response ratings, summarized in Table C, are based on a scale of 0 to 100 where 0 is no effect and 100 is complete control. A dash (-) response means no test result.
# pigweed = assay: Test A pre-/postemergence herbicide test; format: in vivo, Amaranthus retroflexus; conditions: for Pigweed plant response rating: Preemergence, visual rating on 0 to 100 scale (0 no effect, 100 complete control)
# Method in brief: as §1
# barnyardgrass [1] = assay: Test C flooded paddy test; format: in vivo, Echinochloa crus-galli; conditions: Flood
# From the text: as §2
# morningglory = assay: Test A pre-/postemergence herbicide test; format: in vivo, Ipomoea spp.; conditions: for Morningglory plant response rating: Preemergence, visual rating on 0 to 100 scale (0 no effect, 100 complete control)
# Method in brief: as §1
# giant foxtail = assay: Test A pre-/postemergence herbicide test; format: in vivo, Setaria faberii; conditions: for Foxtail, Giant plant response rating: Preemergence, visual rating on 0 to 100 scale (0 no effect, 100 complete control)
# Method in brief: as §1
# crabgrass, large = assay: Test A pre-/postemergence herbicide test; format: in vivo, Digitaria sanguinalis; conditions: for Crabgrass, Large plant response rating: Preemergence, visual rating on 0 to 100 scale (0 no effect, 100 complete control)
# Method in brief: as §1
# corn = assay: Test A pre-/postemergence herbicide test; format: in vivo, Zea mays; conditions: for Corn plant response rating: Preemergence, visual rating on 0 to 100 scale (0 no effect, 100 complete control)
# Method in brief: as §1
# velvetleaf = assay: Test A pre-/postemergence herbicide test; format: in vivo, Abutilon theophrasti; conditions: for Velvetleaf plant response rating: Preemergence, visual rating on 0 to 100 scale (0 no effect, 100 complete control)
# Method in brief: as §1
# ducksalad = assay: Test C flooded paddy test; format: in vivo, Heteranthera limosa; conditions: Flood
# From the text: as §2
# barnyardgrass [2] = assay: Test A pre-/postemergence herbicide test; format: in vivo, Echinochloa crus-galli; conditions: for Barnyardgrass plant response rating: Preemergence, visual rating on 0 to 100 scale (0 no effect, 100 complete control)
# Method in brief: as §1
# sedge, umbrella = assay: Test C flooded paddy test; format: in vivo, Cyperus difformis; conditions: Flood
# From the text: as §2
# [3] = Postemergence, 125 g ai/ha, 0 to 100 scale, 0 no effect, 100 complete control
# [4] = Postemergence, 500 g ai/ha, 0 to 100 scale (0 no effect, 100 complete control)
# [5] = preemergence, 500 g ai/ha, 0 to 100 scale
# [6] = 31 g ai/ha, scale of 0 to 100 where 0 is no effect and 100 is complete control, 13 to 15 days
# [7] = 62 g ai/ha, scale of 0 to 100 where 0 is no effect and 100 is complete control, 13 to 15 days
# [8] = 125 g ai/ha, scale of 0 to 100 where 0 is no effect and 100 is complete control, 13 to 15 days
# [9] = preemergence, 500 g ai/ha, 0 to 100 scale (0 no effect, 100 complete control)
compound,measurement,setting,value
CC1NC(=O)C(C(=O)Nc2ccccc2F)C1c1ccc(F)c(F)c1 (mixture of isomers) [Compound 7],"Plant response rating, Wheat",wheat; [3],0
same,"Plant response rating, Wheat",wheat; [4],0
same,Wheat plant response rating,wheat; 125 g ai/ha,0
same,"Plant response rating, Wheat",wheat; [5],0
same,"Plant response rating, Rice",rice; [6],0
same,"Plant response rating, Rice",rice; [7],0
same,"Plant response rating, Rice",rice; [8],0
same,"Plant response rating, Rice","rice; 250 g ai/ha, scale 0 to 100",0
same,"Plant response rating, Pigweed",pigweed; [3],0
same,"Plant response rating, Pigweed",pigweed; [4],0
same,Pigweed plant response rating,pigweed; 125 g ai/ha,0
same,"Plant response rating, Pigweed",pigweed; [5],0
same,"Plant response rating, Barnyardgrass",barnyardgrass [1]; [6],0
same,"Plant response rating, Barnyardgrass",barnyardgrass [1]; [7],0
same,"Plant response rating, Barnyardgrass",barnyardgrass [1]; [8],0
same,"Plant response rating, Barnyardgrass","barnyardgrass [1]; 250 g ai/ha, scale 0 to 100",0
same,"Plant response rating, Morningglory",morningglory; [3],0
same,"Plant response rating, Morningglory",morningglory; [4],0
same,Morningglory plant response rating,morningglory; 125 g ai/ha,0
same,"Plant response rating, Morningglory",morningglory; [5],0
same,"Plant response rating, Foxtail, Giant",giant foxtail; [3],0
same,"Plant response rating, Foxtail, Giant",giant foxtail; [4],50
same,"Foxtail, Giant plant response rating",giant foxtail; 125 g ai/ha,70
same,"Plant response rating, Foxtail, Giant",giant foxtail; [5],90
same,"Plant response rating, Crabgrass, Large","crabgrass, large; [3]",30
same,"Plant response rating, Crabgrass, Large","crabgrass, large; [4]",80
same,"Crabgrass, Large plant response rating","crabgrass, large; 125 g ai/ha",80
same,"Plant response rating, Crabgrass, Large","crabgrass, large; [5]",90
same,"Plant response rating, Corn",corn; [3],0
same,"Plant response rating, Corn",corn; [4],0
same,Corn plant response rating,corn; 125 g ai/ha,0
same,"Plant response rating, Corn",corn; [5],0
same,"Plant response rating, Velvetleaf",velvetleaf; [3],0
same,"Plant response rating, Velvetleaf",velvetleaf; [4],0
same,Velvetleaf plant response rating,velvetleaf; 125 g ai/ha,0
same,"Plant response rating, Velvetleaf",velvetleaf; [5],0
same,"Plant response rating, Ducksalad",ducksalad; [6],0
same,"Plant response rating, Ducksalad",ducksalad; [7],0
same,"Plant response rating, Ducksalad",ducksalad; [8],0
same,"Plant response rating, Ducksalad","ducksalad; 250 g ai/ha, scale 0 to 100",0
same,"Plant response rating, Barnyardgrass",barnyardgrass [2]; [3],20
same,"Plant response rating, Barnyardgrass",barnyardgrass [2]; [4],70
same,Barnyardgrass plant response rating,barnyardgrass [2]; 125 g ai/ha,20
same,"Plant response rating, Barnyardgrass",barnyardgrass [2]; [9],80
same,"Plant response rating, Sedge, Umbrella","sedge, umbrella; [6]",0
same,"Plant response rating, Sedge, Umbrella","sedge, umbrella; [7]",0
same,"Plant response rating, Sedge, Umbrella","sedge, umbrella; [8]",0
same,"Plant response rating, Sedge, Umbrella","sedge, umbrella; 250 g ai/ha, scale 0 to 100",0
CC1NC(=O)C(C(=O)Nc2ccccc2F)C1c1ccc(F)c(F)c1 (mixture of isomers) [Compound 8],"Plant response rating, Wheat",wheat; [3],0
same,"Plant response rating, Wheat",wheat; [4],0
same,Wheat plant response rating,wheat; 125 g ai/ha,0
same,"Plant response rating, Wheat",wheat; [5],0
same,"Plant response rating, Rice",rice; [6],0
same,"Plant response rating, Rice",rice; [7],0
same,"Plant response rating, Rice",rice; [8],0
same,"Plant response rating, Rice","rice; 250 g ai/ha, scale 0 to 100",0
same,"Plant response rating, Pigweed",pigweed; [3],0
same,"Plant response rating, Pigweed",pigweed; [4],0
same,Pigweed plant response rating,pigweed; 125 g ai/ha,0
same,"Plant response rating, Pigweed",pigweed; [5],0
same,"Plant response rating, Barnyardgrass",barnyardgrass [1]; [6],0
same,"Plant response rating, Barnyardgrass",barnyardgrass [1]; [7],0
same,"Plant response rating, Barnyardgrass",barnyardgrass [1]; [8],0
same,"Plant response rating, Barnyardgrass","barnyardgrass [1]; 250 g ai/ha, scale 0 to 100",0
same,"Plant response rating, Morningglory",morningglory; [3],0
same,"Plant response rating, Morningglory",morningglory; [4],0
same,Morningglory plant response rating,morningglory; 125 g ai/ha,0
same,"Plant response rating, Morningglory",morningglory; [5],0
same,"Plant response rating, Foxtail, Giant",giant foxtail; [3],0
same,"Plant response rating, Foxtail, Giant",giant foxtail; [4],50
same,"Foxtail, Giant plant response rating",giant foxtail; 125 g ai/ha,60
same,"Plant response rating, Foxtail, Giant",giant foxtail; [5],90
same,"Plant response rating, Crabgrass, Large","crabgrass, large; [3]",60
same,"Plant response rating, Crabgrass, Large","crabgrass, large; [4]",70
same,"Crabgrass, Large plant response rating","crabgrass, large; 125 g ai/ha",80
same,"Plant response rating, Crabgrass, Large","crabgrass, large; [5]",90
same,"Plant response rating, Corn",corn; [3],0
same,"Plant response rating, Corn",corn; [4],0
same,Corn plant response rating,corn; 125 g ai/ha,0
same,"Plant response rating, Corn",corn; [5],20
same,"Plant response rating, Velvetleaf",velvetleaf; [3],0
same,"Plant response rating, Velvetleaf",velvetleaf; [4],0
same,Velvetleaf plant response rating,velvetleaf; 125 g ai/ha,0
same,"Plant response rating, Velvetleaf",velvetleaf; [5],0
same,"Plant response rating, Ducksalad",ducksalad; [6],0
same,"Plant response rating, Ducksalad",ducksalad; [7],0
same,"Plant response rating, Ducksalad",ducksalad; [8],0
same,"Plant response rating, Ducksalad","ducksalad; 250 g ai/ha, scale 0 to 100",0
same,"Plant response rating, Barnyardgrass",barnyardgrass [2]; [3],20
same,"Plant response rating, Barnyardgrass",barnyardgrass [2]; [4],60
same,Barnyardgrass plant response rating,barnyardgrass [2]; 125 g ai/ha,20
same,"Plant response rating, Barnyardgrass",barnyardgrass [2]; [9],60
same,"Plant response rating, Sedge, Umbrella","sedge, umbrella; [6]",0
same,"Plant response rating, Sedge, Umbrella","sedge, umbrella; [7]",0
same,"Plant response rating, Sedge, Umbrella","sedge, umbrella; [8]",0
same,"Plant response rating, Sedge, Umbrella","sedge, umbrella; 250 g ai/ha, scale 0 to 100",0
CC1NC(=O)C(C(=O)Nc2ccccc2C(F)(F)F)C1c1ccc(F)c(F)c1 (mixture of isomers) [Compound 10],"Plant response rating, Wheat",wheat; [3],0
same,"Plant response rating, Wheat",wheat; [4],0
same,Wheat plant response rating,wheat; 125 g ai/ha,0
same,"Plant response rating, Wheat",wheat; [5],0
same,"Plant response rating, Rice",rice; [6],0
same,"Plant response rating, Rice",rice; [7],0
same,"Plant response rating, Rice",rice; [8],0
same,"Plant response rating, Rice","rice; 250 g ai/ha, scale 0 to 100",0
same,"Plant response rating, Pigweed",pigweed; [3],0
same,"Plant response rating, Pigweed",pigweed; [4],0
same,Pigweed plant response rating,pigweed; 125 g ai/ha,0
same,"Plant response rating, Pigweed",pigweed; [5],0
same,"Plant response rating, Barnyardgrass",barnyardgrass [1]; [6],0
same,"Plant response rating, Barnyardgrass",barnyardgrass [1]; [7],0
same,"Plant response rating, Barnyardgrass",barnyardgrass [1]; [8],0
same,"Plant response rating, Barnyardgrass","barnyardgrass [1]; 250 g ai/ha, scale 0 to 100",0
same,"Plant response rating, Morningglory",morningglory; [3],0
same,"Plant response rating, Morningglory",morningglory; [4],0
same,Morningglory plant response rating,morningglory; 125 g ai/ha,0
same,"Plant response rating, Morningglory",morningglory; [5],0
same,"Plant response rating, Foxtail, Giant",giant foxtail; [3],0
same,"Plant response rating, Foxtail, Giant",giant foxtail; [4],30
same,"Foxtail, Giant plant response rating",giant foxtail; 125 g ai/ha,60
same,"Plant response rating, Foxtail, Giant",giant foxtail; [5],90
same,"Plant response rating, Crabgrass, Large","crabgrass, large; [3]",20
same,"Plant response rating, Crabgrass, Large","crabgrass, large; [4]",60
same,"Crabgrass, Large plant response rating","crabgrass, large; 125 g ai/ha",90
same,"Plant response rating, Crabgrass, Large","crabgrass, large; [5]",90
same,"Plant response rating, Corn",corn; [3],0
same,"Plant response rating, Corn",corn; [4],0
same,Corn plant response rating,corn; 125 g ai/ha,0
same,"Plant response rating, Corn",corn; [5],0
same,"Plant response rating, Velvetleaf",velvetleaf; [3],0
same,"Plant response rating, Velvetleaf",velvetleaf; [4],0
same,Velvetleaf plant response rating,velvetleaf; 125 g ai/ha,0
same,"Plant response rating, Velvetleaf",velvetleaf; [5],0
same,"Plant response rating, Ducksalad",ducksalad; [6],0
same,"Plant response rating, Ducksalad",ducksalad; [7],0
same,"Plant response rating, Ducksalad",ducksalad; [8],0
same,"Plant response rating, Ducksalad","ducksalad; 250 g ai/ha, scale 0 to 100",0
same,"Plant response rating, Barnyardgrass",barnyardgrass [2]; [3],0
same,"Plant response rating, Barnyardgrass",barnyardgrass [2]; [4],40
same,Barnyardgrass plant response rating,barnyardgrass [2]; 125 g ai/ha,0
same,"Plant response rating, Barnyardgrass",barnyardgrass [2]; [9],40
same,"Plant response rating, Sedge, Umbrella","sedge, umbrella; [6]",0
same,"Plant response rating, Sedge, Umbrella","sedge, umbrella; [7]",0
same,"Plant response rating, Sedge, Umbrella","sedge, umbrella; [8]",0
same,"Plant response rating, Sedge, Umbrella","sedge, umbrella; 250 g ai/ha, scale 0 to 100",0
